In this assay the test system is rats. Kind of assay: forced swimming test in rats. Format: in vivo. The protocol: The antidepressive efficacy was examined by means of the so-called “forced swimming test” in rats. In performing this test rats are brought into an impasse situation (glass cylinder filled with water) over a specified period of 5 minutes. In this test the rats react with a rigor referred to as an immobilization period which is interpreted as a correlative to a depression. If the rats are treated with medicaments having an antidepressive efficacy before carrying out the test, the immobilization period is decreased. Since other psychotropic drugs such as anxiolytics or neuroleptics are not effective in this test, this test system is well suitable for detecting antidepressive effects (Porsolt et al. 1978; Porsolt, 1991). In this test all hitherto known antidepressives have to be administered over a period of several days in order to be effective (similar to the administration to patients). The test animals were treated either with the test substance or for control purposes with the solvent only or with the tricyclic antidepressive imipramine for a comparison of the efficacy.
The following tables exemplarily show the efficacy of rutin, isorhamnetin and plant extracts containing isorhamnetin derivatives or rutin in sufficient amounts. In each table the inhibition of the immobility is expressed in terms of % inhibition against the control group for comparison purposes.

Experimental findings from patent publication US20060198914A1, “Use of rutin and isoharmnetin for treating depressive states and depression and other emotion disorders” (Bioplanta Arzneimittel GmbH, priority 2003, published 2006) are described below.

Take `COc1cc(-c2oc3cc(O)cc(O)c3c(=O)c2O)ccc1O` [Isorhamnetin, 3,5,7-trihydroxy-2-(4-hydroxy-3-methoxyphenyl)-4H-1-benzopyran-4-one]: the “Inhibition of immobility [% of the control]” value was 17 % of the control (Table 2, dose 3 mg/kg) and 56 % of the control (Table 2, dose 10 mg/kg).

Turning to `C[C@@H]1O[C@@H](OC[C@H]2O[C@@H](Oc3c(-c4ccc(O)c(O)c4)oc4cc(O)cc(O)c4c3=O)[C@H](O)[C@@H](O)[C@@H]2O)[C@H](O)[C@H](O)[C@H]1O` [Rutin, 3-[[6-O-(6-deoxy-α-L-mannopyranosyl)-β-D-glucopyranosyl]oxy]-2-(3,4-dihydroxyphenyl)-5,7-dihydroxy-4H-1-benzopyran-4-one], the “Inhibition of immobility [% of the control]” value is recorded as 8 % of the control (Table 1, dose 3 mg/kg); 41 % of the control (Table 1, dose 6 mg/kg); 42 % of the control (Table 1, dose 12 mg/kg); 49 % of the control (Table 1, dose 24 mg/kg); 74 % of the control (Table 1, dose 48 mg/kg).

As for `CN(C)CCCN1c2ccccc2CCc2ccccc21` [Imipramine, imipramine, reference compound], the “Inhibition of immobility [% of the control]” value runs as follows: (Table 1, dose 30 mg/kg) 46 % of the control; (Table 2, dose 3 mg/kg) 3 % of the control; (Table 2, dose 10 mg/kg) 24 % of the control. The “Inhibition [% of the control]” value reads like this: (Table 3, dose 20 mg/kg) 43 % of the control; (Table 4, dose 20 mg/kg) 43 % of the control; (Table 5, dose 30 mg/kg) 64 % of the control.
